{
  "source": "paper PMC8146789",
  "about": "“20-Hydroxyecdysone, from Plant Extracts to Clinical Use: Therapeutic Potential for the Treatment of Neuromuscular, Cardio-Metabolic and Respiratory Diseases” (Biomedicines, 2021)",
  "key": {"[1]": {"conditions": "in vivo; cited from earlier work"}, "[2]": {"parameters": "method as in PMID 21439380, PMID 33819630", "conditions": "mice, oral; ref [126],[127]; cited from earlier work"}, "[3]": {"parameters": "method as in PMID 15559639", "conditions": "hepatitis B, 5 mg b.i.d., 30 days; ref [159]; cited from earlier work"}, "[4]": {"parameters": "method as in PMID 33819630", "conditions": "male Wistar rats, oral [3H]20E; ref [127]; cited from earlier work"}, "[5]": {"system": "Giardiasis", "parameters": "method as in PMID 12224262", "conditions": "5 mg 3× or 4×/day, 10 days; ref [167]; cited from earlier work"}, "[6]": {"parameters": "method as in doi:10.1055/s-0032-1320426", "conditions": "ovariectomized rats, p < 0.05; ref [171],[172]; cited from earlier work"}, "[7]": {"conditions": "cited from earlier work; for dose dependence of plasma levels: increasing doses; for AUC0-t / Cmax / tmax: fasted; for AUC0-t / Cmax: n = 6, (SEM); for tmax: n = 6, (range)"}, "[8]": {"conditions": "alcohols; cited from earlier work"}, "[9]": {"parameters": "method as in doi:10.1055/s-0032-1320426", "conditions": "ref [171],[172], cited from earlier work"}, "[10]": {"experiment": "repeated dose toxicity study (26-week)", "conditions": "rat, in vivo; rats, 26-week repeated dose; Biophytis, unpublished data; read-out: No Observed Adverse Effect Level (NOAEL)", "description": "More recently, a purified to pharmaceutical grade 20E (≥97% 20E purity) was used as a drug candidate in preclinical regulatory studies including safety pharmacology, genotoxicity and repeated toxicology in rodents (rats) and non-rodents (dog)."}, "[11]": {"conditions": "single oral 100 mg, ref [136],[137]"}, "[12]": {"conditions": "single oral 350 mg, ref [136],[137]"}, "[13]": {"conditions": "single oral 700 mg, ref [136],[137]"}, "[14]": {"conditions": "single oral 1400 mg, ref [136],[137]"}, "[15]": {"conditions": "slightly overweight persons, 200 mg daily"}},
  "note": "Read-outs that look alike come from different tables or passages of the source.",
  "data": [
    {"smiles": "CC(C)(O)CC[C@@H](O)[C@](C)(O)[C@H]1CC[C@@]2(O)C3=CC(=O)[C@@H]4C[C@@H](O)[C@@H](O)C[C@]4(C)[C@H]3CC[C@]12C", "note": "[20E, 2β,3β,14α,20R,22R,25-hexahydroxy-5β-cholest-7-en-6-one]", "values": [
      {"measurement": "time of plasma titre maximum", "setting": "[1]", "result": "ca. 30 min"},
      {"measurement": "time at which 20E starts to reach the large intestine", "setting": "[2]", "result": "ca. 30 min"},
      {"measurement": "liver state", "setting": "[3]", "result": "In case of hepatitis B, improvement of liver state"},
      {"measurement": "radioactivity in urine, of the total radioactivity recovered", "setting": "[4]", "result": 1.40, "unit": "%"},
      {"measurement": "time to completed elimination of 20E and its metabolites", "setting": "[4]", "result": "≤ 48", "unit": "h"},
      {"measurement": "patients with parasite elimination", "setting": "[5]", "result": "Parasite elimination in 68.7% of patients"},
      {"measurement": "abdominal, bone marrow and joint fat", "setting": "[6]", "result": "reduced the amount of abdominal, bone marrow and joint fat"},
      {"measurement": "safety profile, adverse events", "setting": "[7]; humans, SAD 100 to 1400 mg, MAD up to 450 mg twice a day for 14 days, ref [180]", "result": "no serious adverse events during SAD and MAD"},
      {"measurement": "dose dependence of plasma levels", "setting": "[7]; humans, oral, ref [136],[137]", "result": "dose-related and also apparently saturable"},
      {"measurement": "dose dependence of plasma levels", "setting": "[7]; humans, oral, ref [136],[137], listed as BIO101", "result": "increased less that dose-proportionally"},
      {"measurement": "bioavailability", "setting": "[7]; humans, oral, ref [180]", "result": "rather low"},
      {"measurement": "share of the urinary excretion within 4 h", "setting": "[7]; humans, single dose, ref [136],[137]", "result": "half of this was excreted within 4 h"},
      {"measurement": "administered 20E excreted in the urine", "setting": "[7]; humans, within 12 h of a single dose, ref [136],[137]", "result": "About 2%"},
      {"measurement": "serum biomarkers of muscular catabolism (myoglobin, CK-MB)", "setting": "[7]; older adults, after 14 days of administration (MAD), ref [180]", "result": "reduced in subjects administered the highest dose"},
      {"measurement": "AUC0-t", "setting": "[7]; [11]", "result": "767 (31.1) ng·h/mL"},
      {"measurement": "Cmax", "setting": "[7]; [11]", "result": "141 (16.6) ng/mL"},
      {"measurement": "tmax", "setting": "[7]; [11]", "result": "2.03 (1.00–3.02) h"},
      {"measurement": "AUC0-t", "setting": "[7]; [12]", "result": "1924 (40.1) ng·h/mL"},
      {"measurement": "Cmax", "setting": "[7]; [12]", "result": "317 (37.9) ng/mL"},
      {"measurement": "AUC0-t", "setting": "[7]; [13]", "result": "2578 (22.9) ng·h/mL"},
      {"measurement": "Cmax", "setting": "[7]; [13]", "result": "399 (24.7) ng/mL"},
      {"measurement": "tmax", "setting": "[7]; [13]", "result": "3.00 (2.00–4.02) h"},
      {"measurement": "AUC0-t", "setting": "[7]; [14]", "result": "4148 (15.9) ng·h/mL"},
      {"measurement": "Cmax", "setting": "[7]; [14]", "result": "710 (20.2) ng/mL"},
      {"measurement": "tmax", "setting": "[7]; [14]", "result": "3.50 (2.00–4.02) h"},
      {"measurement": "solubility", "setting": "[8]", "result": "highly soluble in alcohols"},
      {"measurement": "output of trial in menopause disorders", "setting": "[9]; overweight, 100 or 200 mg/day, 3 months", "result": "Prevention of metabolic syndrome and osteoporosis, reduction in body weight, reduction in plasma cholesterol and CRP; proposed for hormone replacement therapy"},
      {"measurement": "increase of HDL", "setting": "[9]; [15]", "result": 10.8, "unit": "%"},
      {"measurement": "reduction of LDL", "setting": "[9]; [15]", "result": 13.9, "unit": "%"},
      {"measurement": "reduction of serum cholesterol", "setting": "[9]; [15]", "result": 10.2, "unit": "%"},
      {"measurement": "reduction of triglycerides", "setting": "[9]; [15]", "result": 31.1, "unit": "%"},
      {"measurement": "reduction of waist circumference", "setting": "[9]; [15]", "result": 2.7, "unit": "cm"},
      {"measurement": "NOAEL at 26 week", "setting": "[10]", "result": 1000, "unit": "mg/kg"}
    ]}
  ]
}
